{"source": "patent US7632666B2", "about": "(priority 2005, dated 2009)", "key": {"[1]": {"biological_target": "haloalkane dehalogenase DbjA (Bradyrhizobium diazoefficiens, UniProt P59337)", "sequence (P59337 whole entry)": "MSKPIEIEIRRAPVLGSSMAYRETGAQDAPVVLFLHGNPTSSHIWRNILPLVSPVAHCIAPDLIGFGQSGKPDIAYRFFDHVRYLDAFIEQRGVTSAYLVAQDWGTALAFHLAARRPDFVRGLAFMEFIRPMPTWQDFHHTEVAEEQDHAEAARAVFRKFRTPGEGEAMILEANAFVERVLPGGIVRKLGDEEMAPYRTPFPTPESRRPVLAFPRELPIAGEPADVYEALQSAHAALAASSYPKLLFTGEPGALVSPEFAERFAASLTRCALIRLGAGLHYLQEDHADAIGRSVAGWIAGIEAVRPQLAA", "assay_type": "biochemical, Bradyrhizobium japonicum USDA110", "conditions": "for Relative enzyme activity (%) 5% of solvent / Relative enzyme activity (%) 10% of solvent / Relative enzyme activity (%) 20% of solvent: pH 8.6"}, "[2]": {"biological_target": "haloalkane dehalogenase LinB L177D (Sphingobium indicum, UniProt D4Z2G1, L177D)", "sequence (D4Z2G1 whole entry L177D, looked up)": "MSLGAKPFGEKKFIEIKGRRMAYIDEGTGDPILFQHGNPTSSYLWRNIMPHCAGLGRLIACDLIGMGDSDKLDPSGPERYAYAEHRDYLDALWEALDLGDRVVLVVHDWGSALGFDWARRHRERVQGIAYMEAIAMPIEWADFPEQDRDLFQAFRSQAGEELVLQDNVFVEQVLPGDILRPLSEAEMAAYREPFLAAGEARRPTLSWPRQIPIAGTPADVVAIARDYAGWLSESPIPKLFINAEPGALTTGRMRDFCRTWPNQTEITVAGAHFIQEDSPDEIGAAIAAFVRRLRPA", "assay_type": "biochemical"}, "[3]": {"biological_target": "haloalkane dehalogenase LinB L177T (Sphingobium indicum, UniProt D4Z2G1, L177T)", "sequence (D4Z2G1 whole entry L177T, looked up)": "as the sequence (D4Z2G1 whole entry L177D, looked up) above, with D177T counted along it", "assay_type": "biochemical"}, "[4]": {"biological_target": "haloalkane dehalogenase LinB L177A (Sphingobium indicum, UniProt D4Z2G1, L177A)", "sequence (D4Z2G1 whole entry L177A, looked up)": "as the sequence (D4Z2G1 whole entry L177D, looked up) above, with D177A counted along it", "assay_type": "biochemical"}, "[5]": {"biological_target": "haloalkane dehalogenase LinB L177G (Sphingobium indicum, UniProt D4Z2G1, L177G)", "sequence (D4Z2G1 whole entry L177G, looked up)": "as the sequence (D4Z2G1 whole entry L177D, looked up) above, with D177G counted along it", "assay_type": "biochemical"}, "[6]": {"biological_target": "haloalkane dehalogenase LinB L177Q (Sphingobium indicum, UniProt D4Z2G1, L177Q)", "sequence (D4Z2G1 whole entry L177Q, looked up)": "as the sequence (D4Z2G1 whole entry L177D, looked up) above, with D177Q counted along it", "assay_type": "biochemical"}, "[7]": {"biological_target": "haloalkane dehalogenase LinB L177S (Sphingobium indicum, UniProt D4Z2G1, L177S)", "sequence (D4Z2G1 whole entry L177S, looked up)": "as the sequence (D4Z2G1 whole entry L177D, looked up) above, with D177S counted along it", "assay_type": "biochemical"}, "[8]": {"biological_target": "haloalkane dehalogenase LinB L177F (Sphingobium indicum, UniProt D4Z2G1, L177F)", "sequence (D4Z2G1 whole entry L177F, looked up)": "as the sequence (D4Z2G1 whole entry L177D, looked up) above, with D177F counted along it", "assay_type": "biochemical"}, "[9]": {"biological_target": "haloalkane dehalogenase LinB L177H (Sphingobium indicum, UniProt D4Z2G1, L177H)", "sequence (D4Z2G1 whole entry L177H, looked up)": "as the sequence (D4Z2G1 whole entry L177D, looked up) above, with D177H counted along it", "assay_type": "biochemical"}, "[10]": {"biological_target": "haloalkane dehalogenase LinB L177C (Sphingobium indicum, UniProt D4Z2G1, L177C)", "sequence (D4Z2G1 whole entry L177C, looked up)": "as the sequence (D4Z2G1 whole entry L177D, looked up) above, with D177C counted along it", "assay_type": "biochemical"}, "[11]": {"biological_target": "haloalkane dehalogenase LinB L177V (Sphingobium indicum, UniProt D4Z2G1, L177V)", "sequence (D4Z2G1 whole entry L177V, looked up)": "as the sequence (D4Z2G1 whole entry L177D, looked up) above, with D177V counted along it", "assay_type": "biochemical"}, "[12]": {"biological_target": "haloalkane dehalogenase LinB L177M (Sphingobium indicum, UniProt D4Z2G1, L177M)", "sequence (D4Z2G1 whole entry L177M, looked up)": "as the sequence (D4Z2G1 whole entry L177D, looked up) above, with D177M counted along it", "assay_type": "biochemical"}, "[13]": {"biological_target": "haloalkane dehalogenase LinB wild type (Sphingobium indicum, UniProt D4Z2G1)", "sequence (D4Z2G1 whole entry)": "as the sequence (D4Z2G1 whole entry L177D, looked up) above, with D177L counted along it", "assay_type": "biochemical, Sphingomonas paucimobilis UT26"}, "[14]": {"biological_target": "haloalkane dehalogenase LinB L177Y (Sphingobium indicum, UniProt D4Z2G1, L177Y)", "sequence (D4Z2G1 whole entry L177Y, looked up)": "as the sequence (D4Z2G1 whole entry L177D, looked up) above, with D177Y counted along it", "assay_type": "biochemical"}, "[15]": {"biological_target": "haloalkane dehalogenase LinB L177R (Sphingobium indicum, UniProt D4Z2G1, L177R)", "sequence (D4Z2G1 whole entry L177R, looked up)": "as the sequence (D4Z2G1 whole entry L177D, looked up) above, with D177R counted along it", "assay_type": "biochemical"}, "[16]": {"biological_target": "haloalkane dehalogenase LinB L177W (Sphingobium indicum, UniProt D4Z2G1, L177W)", "sequence (D4Z2G1 whole entry L177W, looked up)": "as the sequence (D4Z2G1 whole entry L177D, looked up) above, with D177W counted along it", "assay_type": "biochemical"}, "[17]": {"biological_target": "haloalkane dehalogenase LinB L177K (Sphingobium indicum, UniProt D4Z2G1, L177K)", "sequence (D4Z2G1 whole entry L177K, looked up)": "as the sequence (D4Z2G1 whole entry L177D, looked up) above, with D177K counted along it", "assay_type": "biochemical"}}, "data": [{"smiles": "C1COCCO1", "note": "[1,4-dioxane]", "values": [{"measurement": "DbjA activity in the presence of the solvent in the reaction medium", "setting": "[1]", "result": "increasing activity"}, {"measurement": "Relative enzyme activity (%) 5% of solvent", "setting": "[1]", "result": "121.4 ± 3.9", "unit": "%"}, {"measurement": "Relative enzyme activity (%) 10% of solvent", "setting": "[1]", "result": "139.9 ± 7.8", "unit": "%"}, {"measurement": "Relative enzyme activity (%) 20% of solvent", "setting": "[1]", "result": "152.0 ± 9.5", "unit": "%"}]}, {"smiles": "CCCCBr", "note": "[1-bromobutane]", "values": [{"measurement": "Relative activities (% of wt) L177D", "setting": "[2]", "result": "347 % of wt"}, {"measurement": "Relative activities (% of wt) L177T", "setting": "[3]", "result": "553 % of wt"}, {"measurement": "Relative activities (% of wt) L177A", "setting": "[4]", "result": "356 % of wt"}, {"measurement": "Relative activities (% of wt) L177G", "setting": "[5]", "result": "380 % of wt"}, {"measurement": "Relative activities (% of wt) L177Q", "setting": "[6]", "result": "458 % of wt"}, {"measurement": "Relative activities (% of wt) L177S", "setting": "[7]", "result": "381 % of wt"}, {"measurement": "Relative activities (% of wt) L177F", "setting": "[8]", "result": "243 % of wt"}, {"measurement": "Relative activities (% of wt) L177H", "setting": "[9]", "result": "224 % of wt"}, {"measurement": "Relative activities (% of wt) L177C", "setting": "[10]", "result": "243 % of wt"}, {"measurement": "Relative activities (% of wt) L177V", "setting": "[11]", "result": "132 % of wt"}, {"measurement": "Relative activities (% of wt) L177M", "setting": "[12]", "result": "227 % of wt"}, {"measurement": "Relative activities (% of wt) wt1", "setting": "[13]", "result": "100 % of wt"}, {"measurement": "Relative activities (% of wt) wt2", "setting": "[13]", "result": "100 % of wt"}, {"measurement": "Relative activities (% of wt) L177Y", "setting": "[14]", "result": "112 % of wt"}, {"measurement": "Relative activities (% of wt) L177R", "setting": "[15]", "result": "165 % of wt"}, {"measurement": "Relative activities (% of wt) L177W", "setting": "[16]", "result": "60 % of wt"}, {"measurement": "Relative activities (% of wt) L177K", "setting": "[17]", "result": "201 % of wt"}]}, {"smiles": "CCCCCl", "note": "[1-chlorobutane]", "values": [{"measurement": "Km", "setting": "[2]", "result": 21.9, "unit": "mM"}]}, {"smiles": "CCCCI", "note": "[1-iodobutane]", "values": [{"measurement": "Relative activities (% of wt) L177D", "setting": "[2]", "result": "259 % of wt"}, {"measurement": "Relative activities (% of wt) L177T", "setting": "[3]", "result": "424 % of wt"}, {"measurement": "Relative activities (% of wt) L177A", "setting": "[4]", "result": "133 % of wt"}, {"measurement": "Relative activities (% of wt) L177G", "setting": "[5]", "result": "344 % of wt"}, {"measurement": "Relative activities (% of wt) L177Q", "setting": "[6]", "result": "373 % of wt"}, {"measurement": "Relative activities (% of wt) L177S", "setting": "[7]", "result": "363 % of wt"}, {"measurement": "Relative activities (% of wt) L177F", "setting": "[8]", "result": "126 % of wt"}, {"measurement": "Relative activities (% of wt) L177H", "setting": "[9]", "result": "208 % of wt"}, {"measurement": "Relative activities (% of wt) L177C", "setting": "[10]", "result": "210 % of wt"}, {"measurement": "Relative activities (% of wt) L177V", "setting": "[11]", "result": "101 % of wt"}, {"measurement": "Relative activities (% of wt) L177M", "setting": "[12]", "result": "187 % of wt"}, {"measurement": "Relative activities (% of wt) wt1", "setting": "[13]", "result": "100 % of wt"}, {"measurement": "Relative activities (% of wt) wt2", "setting": "[13]", "result": "100 % of wt"}, {"measurement": "Relative activities (% of wt) L177Y", "setting": "[14]", "result": "97 % of wt"}, {"measurement": "Relative activities (% of wt) L177R", "setting": "[15]", "result": "161 % of wt"}, {"measurement": "Relative activities (% of wt) L177W", "setting": "[16]", "result": "58 % of wt"}, {"measurement": "Relative activities (% of wt) L177K", "setting": "[17]", "result": "131 % of wt"}]}, {"smiles": "C=C(C)CCl", "note": "[3-chloro-2-methylpropene]", "values": [{"measurement": "Relative activities (% of wt) L177D", "setting": "[2]", "result": "25 % of wt"}, {"measurement": "Relative activities (% of wt) L177T", "setting": "[3]", "result": "96 % of wt"}, {"measurement": "Relative activities (% of wt) L177A", "setting": "[4]", "result": "199 % of wt"}, {"measurement": "Relative activities (% of wt) L177G", "setting": "[5]", "result": "200 % of wt"}, {"measurement": "Relative activities (% of wt) L177Q", "setting": "[6]", "result": "138 % of wt"}, {"measurement": "Relative activities (% of wt) L177S", "setting": "[7]", "result": "65 % of wt"}, {"measurement": "Relative activities (% of wt) L177F", "setting": "[8]", "result": "98 % of wt"}, {"measurement": "Relative activities (% of wt) L177H", "setting": "[9]", "result": "82 % of wt"}, {"measurement": "Relative activities (% of wt) L177C", "setting": "[10]", "result": "157 % of wt"}, {"measurement": "Relative activities (% of wt) L177V", "setting": "[11]", "result": "79 % of wt"}, {"measurement": "Relative activities (% of wt) L177M", "setting": "[12]", "result": "100 % of wt"}, {"measurement": "Relative activities (% of wt) wt1", "setting": "[13]", "result": "100 % of wt"}, {"measurement": "Relative activities (% of wt) wt2", "setting": "[13]", "result": "100 % of wt"}, {"measurement": "Relative activities (% of wt) L177Y", "setting": "[14]", "result": "78 % of wt"}, {"measurement": "Relative activities (% of wt) L177R", "setting": "[15]", "result": "83 % of wt"}, {"measurement": "Relative activities (% of wt) L177W", "setting": "[16]", "result": "91 % of wt"}, {"measurement": "Relative activities (% of wt) L177K", "setting": "[17]", "result": "110 % of wt"}]}, {"smiles": "NC=O", "note": "[Formamide]", "values": [{"measurement": "Relative enzyme activity (%) 5% of solvent", "setting": "[1]", "result": "73.4 ± 7.6", "unit": "%"}, {"measurement": "Relative enzyme activity (%) 10% of solvent", "setting": "[1]", "result": "76.3 ± 5.0", "unit": "%"}, {"measurement": "Relative enzyme activity (%) 20% of solvent", "setting": "[1]", "result": "16.3 ± 0.6", "unit": "%"}]}, {"smiles": "CO", "note": "[Methanol]", "values": [{"measurement": "DbjA activity in the presence of the solvent in the reaction medium", "setting": "[1]", "result": "increasing activity"}, {"measurement": "Relative enzyme activity (%) 5% of solvent", "setting": "[1]", "result": "93.5 ± 0.9", "unit": "%"}, {"measurement": "Relative enzyme activity (%) 10% of solvent", "setting": "[1]", "result": "128.7 ± 3.5", "unit": "%"}, {"measurement": "Relative enzyme activity (%) 20% of solvent", "setting": "[1]", "result": "160.7 ± 2.0", "unit": "%"}]}, {"smiles": "CN(C)C=O", "note": "[N,N-dimethylformamide]", "values": [{"measurement": "Relative enzyme activity (%) 5% of solvent", "setting": "[1]", "result": "110.5 ± 11.6", "unit": "%"}, {"measurement": "Relative enzyme activity (%) 10% of solvent", "setting": "[1]", "result": "112.6 ± 3.8", "unit": "%"}, {"measurement": "Relative enzyme activity (%) 20% of solvent", "setting": "[1]", "result": "101.9 ± 1.0", "unit": "%"}]}, {"smiles": "CC(C)=O", "note": "[acetone]", "values": [{"measurement": "DbjA activity in the presence of the solvent in the reaction medium", "setting": "[1]", "result": "increasing activity"}, {"measurement": "increase of reaction rate compared to that in the glycine buffer", "setting": "[1]", "result": 1.68, "unit": "times"}, {"measurement": "Relative enzyme activity (%) 5% of solvent", "setting": "[1]", "result": "113.8 ± 7.3", "unit": "%"}, {"measurement": "Relative enzyme activity (%) 10% of solvent", "setting": "[1]", "result": "140.3 ± 2.1", "unit": "%"}, {"measurement": "Relative enzyme activity (%) 20% of solvent", "setting": "[1]", "result": "168.2 ± 3.1", "unit": "%"}]}, {"smiles": "CC#N", "note": "[acetonitrile]", "values": [{"measurement": "Relative enzyme activity (%) 5% of solvent", "setting": "[1]", "result": "117.5 ± 8.9", "unit": "%"}, {"measurement": "Relative enzyme activity (%) 10% of solvent", "setting": "[1]", "result": "124.1 ± 1.0", "unit": "%"}, {"measurement": "Relative enzyme activity (%) 20% of solvent", "setting": "[1]", "result": "0.0 ± 0.0", "unit": "%"}]}, {"smiles": "OCCO", "note": "[ethyleneglycol]", "values": [{"measurement": "Relative enzyme activity (%) 5% of solvent", "setting": "[1]", "result": "87.1 ± 9.8", "unit": "%"}, {"measurement": "Relative enzyme activity (%) 10% of solvent", "setting": "[1]", "result": "80.5 ± 8.9", "unit": "%"}, {"measurement": "Relative enzyme activity (%) 20% of solvent", "setting": "[1]", "result": "109.8 ± 4.0", "unit": "%"}]}, {"smiles": "C1CCOC1", "note": "[tetrahydrofurane]", "values": [{"measurement": "Relative enzyme activity (%) 5% of solvent", "setting": "[1]", "result": "111.9 ± 13.4", "unit": "%"}, {"measurement": "Relative enzyme activity (%) 10% of solvent", "setting": "[1]", "result": "96.9 ± 9.0", "unit": "%"}, {"measurement": "Relative enzyme activity (%) 20% of solvent", "setting": "[1]", "result": "0.0 ± 0.0", "unit": "%"}]}]}
